Test results published in patent US8889878B2, “Haloalky-substituted amides as insecticides and acaricides” (Bayer CropScience AG, priority 2009, dated 2014).

Experiment: logP by HPLC on reverse-phase column (EEC Directive 79/831 Annex V.A8)
Assay type: physicochemical
Conditions: HPLC, C18 reverse phase, 43° C., acidic range pH 2.7, calibration with alkan-2-ones
Description: The logP values reported in the above Tables and Preparation Examples were determined according to EEC Directive 79/831 Annex V.A8 by HPLC (High Performance Liquid Chromatography) on a reverse-phase column (C18). Temperature 43° C.
Work on `ON=C(c1cc(F)cc(C(F)(F)F)c1)C(F)(F)F` (racemic) [2,2,2-Trifluoro-1-[3-fluoro-5-(trifluoromethyl)phenyl]ethanone oxime] yielded a logP of 3.21.
In the case of `O=C(NC1CC1)c1cc2cc(C(=O)NC(c3cccc(C(F)(F)F)c3)C(F)(F)F)n(Cc3ccccc3)c2cc1Cl` (racemic) [Ic-28], the logP is reported as “HPLC-MS: logP = 4.25; mass”.
For `CNC(=O)c1cc2cc(C(=O)NC(c3cccc(C(F)(F)F)c3)C(F)(F)F)n(C)c2cc1Cl` (racemic) [Ic-30], the logP was “HPLC-MS: logP = 3.2; mass (m/z):”.
In the case of `C#CC(C)NC(=O)c1cc2cc(C(=O)NC(c3cccc(C(F)(F)F)c3)C(F)(F)F)n(C)c2cc1Cl` (racemic) [Ic-31], the logP is reported as “HPLC-MS: logP = 3.73; mass”.
With `Cn1c(C(=O)NC(c2cccc(C(F)(F)F)c2)C(F)(F)F)cc2cc(C(=O)NC3CSC3)c(Cl)cc21` (racemic) [Ic-33] the logP was “HPLC-MS: logP = 3.82; mass”.

Same assay, conditions: HPLC-MS
For `COC(=O)C(C)NC(=O)c1ccc(C=CC(=O)NC(c2cccc(C(F)(F)F)c2)C(F)(F)F)cc1Cl` (mixture of isomers) [Ia-191], the logP was “HPLC-MS: logP = 3.29; mass”.
In the case of `CCC(C)NC(=O)c1ccc(C=CC(=O)NC(c2cccc(C(F)(F)F)c2)C(F)(F)F)cc1Cl` (mixture of isomers) [Ia-192], the logP is reported as “HPLC-MS: logP = 3.71; mass”.
In the case of `O=C(C=Cc1ccc(C(=O)NCC=CCl)c(Cl)c1)NC(c1cccc(C(F)(F)F)c1)C(F)(F)F` (mixture of isomers) [Ia-193], the logP is reported as “HPLC-MS: logP = 3.58; mass”.
In the case of `Cn1nccc1NC(=O)c1ccc(/C=C/C(=O)NC(c2cccc(C(F)(F)F)c2)C(F)(F)F)cc1Cl` (racemic) [Ia-188], the logP is reported as “HPLC-MS: logP = 2.73; mass”.
With `Cn1nccc1CNC(=O)c1ccc(/C=C/C(=O)NC(c2cccc(C(F)(F)F)c2)C(F)(F)F)cc1Cl` (racemic) [Ia-189] the logP was “HPLC-MS: logP = 2.93; mass”.
In the case of `O=C(/C=C/c1ccc(C(=O)Nc2ncc(Cl)cn2)c(Cl)c1)NC(c1cccc(C(F)(F)F)c1)C(F)(F)F` (racemic) [Ia-199], the logP is reported as “HPLC-MS: logP = 3.47; mass”.
For `N#Cc1cc(/C=C/C(=O)NC(c2cccc(C(F)(F)F)c2)C(F)(F)F)ccc1-n1cccn1` (racemic) [Ia-201], the logP was “HPLC-MS: logP = 3.5; mass”.
In the case of `N#Cc1cnn(-c2ccc(/C=C/C(=O)NC(c3ccc(F)c(Cl)c3)C(F)(F)F)cc2Cl)c1` (racemic) [Ia-202], the logP is reported as “HPLC-MS: logP = 3.77; mass”.
For `O=C(/C=C/c1ccc(C(=O)Nc2cnccn2)c(Cl)c1)NC(c1cccc(C(F)(F)F)c1)C(F)(F)F` (racemic) [Ia-216], the logP was “HPLC-MS: logP = 3.31; mass”.

Same assay, conditions: pH 2.7
With `O=C(O)/C=C/c1ccc(C(=O)NCc2ccccc2)c(C(F)(F)F)c1` [(2E)-3-[4-(Phenylmethyl)carbamoyl)-3-trifluoromethylphenyl]acrylic acid] the logP was 2.12.
`O=C(O)/C=C/c1ccc(C(=O)Nc2ccccn2)c(C(F)(F)F)c1` [(2E)-3-[4-(Pyridin-2-yl)carbamoyl)-3-trifluoromethylphenyl]acrylic acid] showed a logP of 1.69.
`O=C(O)/C=C/c1ccc(C(=O)NCc2ccccn2)c(C(F)(F)F)c1` [(2E)-3-[4-(Pyridin-2-ylmethyl)carbamoyl)-3-trifluoromethylphenyl]acrylic acid] gave a logP of 0.91.

Same assay, conditions: reverse-phase C18 HPLC column, pH 2.7, HPLC, C18 reverse phase, 43° C., acidic range pH 2.7, calibration with alkan-2-ones
`ON=C(c1cc(F)cc(C(F)(F)F)c1)C(F)(F)F` (racemic) [2,2,2-Trifluoro-1-[3-fluoro-5-(trifluoromethyl)phenyl]ethanone oxime] showed a chromatographic logP of 3.17.
`NC(c1cc(Cl)cc(C(F)(F)F)c1)C(F)(F)F` (stereo not shown) [1-[3-Chloro-5-(trifluoromethyl)phenyl]-2,2,2-trifluoroethanamine] showed a chromatographic logP of 2.94.
In the case of `NCc1ccc(Br)cc1C(F)(F)F` [1-[4-Bromo-2-(trifluoromethyl)phenyl]methanamine], the chromatographic logP is reported as 0.92.
With `NC(c1cc(Cl)c(Cl)c(Cl)c1)C(F)(F)F` (stereo not shown) [2,2,2-Trifluoro-1-(3,4,5-trichlorophenyl)ethanamine] the chromatographic logP was 3.17.
With `O=C(c1cc(F)cc(C(F)(F)F)c1)C(F)(F)F` [2,2,2-Trifluoro-1-[3-fluoro-5-(trifluoromethyl)phenyl]ethanone] the chromatographic logP was 2.54.
`CC(F)(F)C(=O)c1cccc(C(F)(F)F)c1` [2,2-Difluoro-1-[3-(trifluoromethyl)phenyl]propan-1-one] gave a chromatographic logP of 3.61.
`O=C(O)c1ccc2cc(C(=O)NC(c3cccc(C(F)(F)F)c3)C(F)(F)F)oc2c1` (stereo not shown) [2-({2,2,2-Trifluoro-1-[3-(trifluoromethyl)phenyl]ethyl}carbamoyl)-1-benzofuran-6-carboxylic acid] gave a chromatographic logP of 3.1.
For `O=C(/C=C/c1ccc(C(=O)O)c(Br)c1)NC(c1cccc(C(F)(F)F)c1)C(F)(F)F` (stereo not shown) [2-Bromo-4-[(1E)-3-oxo-3-({2,2,2-trifluoro-1-[3-(trifluoromethyl)phenyl]ethyl}amino)prop-1-en-1-yl]benzoic acid], the chromatographic logP was 3.15.
In the case of `O=C(/C=C/c1ccc(C(=O)O)c(Cl)c1)NC(c1cccc(C(F)(F)F)c1)C(F)(F)F` (stereo not shown) [2-Chloro-4-[(1E)-3-oxo-3-({2,2,2-trifluoro-1-[3-(trifluoromethyl)phenyl]ethyl}amino)prop-1-en-1-yl]benzoic acid], the chromatographic logP is reported as 3.1.
For `O=C(C#Cc1ccc(C(=O)NC2CC2)c(Cl)c1)NC(c1cccc(C(F)(F)F)c1)C(F)(F)F` (stereo not shown) [2-Chloro-N-cyclopropyl-4-[3-oxo-3-({2,2,2-trifluoro-1-[3-(trifluoromethyl)phenyl]ethyl}amino)prop-1-yn-1-yl]benzamide], the chromatographic logP was 3.34.
Compound `O=C(NC1CC1)c1ccc(I)cc1Cl` [2-Chloro-N-cyclopropyl-4-iodobenzamide] has a chromatographic logP of 2.13.
In the case of `Cc1cc(/C=C/C(=O)NC(c2cccc(C(F)(F)F)c2)C(F)(F)F)ccc1C(=O)O` (stereo not shown) [2-Methyl-4-[(1E)-3-oxo-3-({2,2,2-trifluoro-1-[3-(trifluoromethyl)phenyl]ethyl}amino)prop-1-en-1-yl]benzoic acid], the chromatographic logP is reported as 3.14.
With `Cc1cc(Br)ccc1C(=O)NCc1ccccn1` [4-Bromo-2-methyl-N-(pyridin-2-ylmethyl)benzamide] the chromatographic logP was 1.4.
`O=C(Nc1ccccn1)c1ccc(Br)cc1C(F)(F)F` [4-Bromo-N-(pyridin-2-yl)-2-(trifluoromethyl)benzamide] showed a chromatographic logP of 2.57.
In the case of `O=C(NCc1ccccn1)c1ccc(Br)cc1C(F)(F)F` [4-Bromo-N-(pyridin-2-ylmethyl)-2-(trifluoromethyl)benzamide], the chromatographic logP is reported as 1.56.
In the case of `O=C(NC1CC1)c1ccc(Br)cc1C(F)(F)F` [4-Bromo-N-cyclopropyl-2-(trifluoromethyl)benzamide], the chromatographic logP is reported as 2.13.
`O=C(/C=C/c1ccc(C(=O)O)c(C(F)(F)F)c1)NC(c1cccc(C(F)(F)F)c1)C(F)(F)F` (stereo not shown) [4-[(1E)-3-Oxo-3-({2,2,2-trifluoro-1-[3-(trifluoromethyl)phenyl]ethyl}amino)prop-1-en-1-yl]-2-(trifluoromethyl)benzoic acid] showed a chromatographic logP of 3.29.
With `NCc1ccc2oc(C(=O)NC(c3cccc(C(F)(F)F)c3)C(F)(F)F)cc2c1` (stereo not shown) [5-(Aminomethyl)-N-{2,2,2-trifluoro-1-[3-(trifluoromethyl)phenyl]ethyl}-1-benzofuran-2-carboxamide] the chromatographic logP was 2.02.
In the case of `CC(C)(C)OC(=O)c1ccc2cc(C(=O)O)oc2c1` [6-(tert-Butoxycarbonyl)-1-benzofuran-2-carboxylic acid], the chromatographic logP is reported as 2.58.
Compound `CCOC(=O)c1cc2ccc(C(=O)OC(C)(C)C)cc2o1` [6-tert-Butyl 2-ethyl 1-benzofuran-2,6-dicarboxylate] has a chromatographic logP of 4.32.
Work on `NC1CCc2cc(/C=C/C(=O)NC(c3cccc(C(F)(F)F)c3)C(F)(F)F)ccc21` (stereo not shown) [(2E)-3-(1-Amino-2,3-dihydro-1H-inden-5-yl)-N-{2,2,2-trifluoro-1-[3-(trifluoromethyl)phenyl]-ethyl}acrylamide] yielded a chromatographic logP of 1.7.
`Nc1cccc(/C=C/C(=O)NC(c2cccc(C(F)(F)F)c2)C(F)(F)F)c1` (stereo not shown) [(2E)-3-(3-Aminophenyl)-N-{2,2,2-trifluoro-1-[3-(trifluoromethyl)phenyl]ethyl}acrylamide] gave a chromatographic logP of 2.88.
For `O=C(/C=C/c1cccc([N+](=O)[O-])c1)NC(c1cccc(C(F)(F)F)c1)C(F)(F)F` (stereo not shown) [(2E)-3-(3-Nitrophenyl)-N-{2,2,2-trifluoro-1-[3-(trifluoromethyl)phenyl]ethyl}acrylamide], the chromatographic logP was 3.81.
Compound `N#Cc1cc(/C=C/C(=O)O)ccc1-n1cncn1` [(2E)-3-[3-Cyano-4-(1H-1,2,4-triazol-1-yl)phenyl]acrylic acid] has a chromatographic logP of 0.97.
`NCc1ccc(/C=C/C(=O)NC(c2cccc(C(F)(F)F)c2)C(F)(F)F)cc1C(F)(F)F` (stereo not shown) [(2E)-3-[4-(Aminomethyl)-3-(trifluoromethyl)phenyl]-N-{2,2,2-trifluoro-1-[3-(trifluoro-methyl)phenyl]ethyl}acrylamide] showed a chromatographic logP of 1.61.
For `Cc1cc(/C=C/C(=O)O)ccc1C(=O)NC1CC1` [(2E)-3-[4-(Cyclopropylcarbamoyl)-3-methylphenyl]acrylic acid], the chromatographic logP was 1.14.
Compound `O=C(O)/C=C/c1ccc(C(=O)NC2CC2)c(C(F)(F)F)c1` [(2E)-3-[4-(Cyclopropylcarbamoyl)-3-trifluoromethylphenyl]acrylic acid] has a chromatographic logP of 1.34.
In the case of `N/C(=N\O)c1ccc(/C=C/C(=O)NC(c2cccc(C(F)(F)F)c2)C(F)(F)F)cc1C(F)(F)F` (stereo not shown) [(2E)-3-[4-(N′-Hydroxycarbamimidoyl)-3-(trifluoromethyl)phenyl]-N-{2,2,2-trifluoro-1-[3-(trifluoromethyl)phenyl]ethyl}acrylamide], the chromatographic logP is reported as 2.55.
`CC(C)(C)OC(=O)NCc1ccc(/C=C/C(=O)O)cc1C(F)(F)F` [(2E)-3-[4-{[tert-Butoxycarbonyl)amino]methyl}-3-(trifluoromethyl)phenyl]acrylic acid] gave a chromatographic logP of 2.67.
`O=C(O)/C=C/c1cc(C(F)(F)F)c(C(=O)NC2CC2)cn1` [(2E)-3-[5-(Cyclopropylcarbamoyl)-4-(trifluoromethyl)pyridin-2-yl]acrylic acid] showed a chromatographic logP of 1.26.
Compound `CC(C)(C)OC(=O)NC1CCc2cc(/C=C/C(=O)O)ccc21` (stereo not shown) [(2E)-3-{1-[(tert-Butoxycarbonyl)amino]-2,3-dihydro-1H-inden-5-yl}acrylic acid] has a chromatographic logP of 2.47.
In the case of `CCOC(=O)c1cc(I)c(N)cc1Cl` [Ethyl 4-amino-2-chloro-5-iodobenzoate], the chromatographic logP is reported as 2.95.
